Results taken from US20130184337A1, “SODIUM ASCORBATE STIMULATION OF ELASTOGENESIS” (THE HOSPITAL FOR SICK CHILDREN, priority 2012, published 2013).
“Also recorded” adds a separate entry of the source.

How the values were obtained:
[1] = test system: reactive oxygen species (ROS); assay: Intracellular ROS with CM-H2DCFDA probe (fluorescence microscope, flow cytophotometry); format: cell-based, human
Procedure: Quantification of Intracellular free radicals-reactive oxygen species (ROS)—To assess the levels of ROS, quadruplicate cultures of normal skin fibroblasts were exposed to 10 μM of ROS-sensitive CM-H2DCFDA fluorescent probe (Molecular Probes, Eugene, Oreg.) for 30 minutes. This probe passively diffuses into the cell interior and only upon oxidation is a fluorescent product released that can be visualized under a fluorescent microscope or captured by flow cytophotometry when excited at 480 nm. Fibroblasts were then maintained for 30 minutes in the presence or absence of 400 μM probenecid, then incubated either for 2 or 24 hours with and without 100 μM AA or 100 μM SA. At the end of these periods the images were captured using a fluorescent microscope under identical parameters of contrast and brightness. The ROS production was also assessed by flow cytophotometry (λ excitation 480 nm; λ emission 520 nm), using FACSCalibur, Beckton Dickinson Instrument.

[2] = test system: normal dermal fibroblasts; assay: Collagen fiber deposition (immuno-staining of collagen type I, morphometry); format: cell-based, human
Procedure: (§1) Cell Cultures—Fibroblasts initially grew out from the explants of these full thickness skin biopsies and were maintained. The primary cultures of fat-derived fibroblasts obtained from Thermogenesis (Rancho Cordova, Calif.) were also tested. In all described experiments, 2-4 passages of both kinds of fibroblasts were used. In experiments aimed at assessing ECM production, cells were initially plated at a concentration of 100,000 cells/dish. Confluent cultures were then maintained either in serum-free medium (DMEM) or in medium supplemented with 5% FBS in the presence of different reagents that were added 1 hour before treatments with SA.
(§2) Immuno-staining—All cultures maintained in the presence and absence of indicated reagents were either fixed in cold 100% methanol at −20° C. (for detection of elastin) or in 4% paraformaldehyde at room temperature (for detection of collagen I). The multiple parallel cultures were then incubated with 10 μg/ml of polyclonal antibody to tropoelastin (Elastin Products, Owensville, Mich.), or polyclonal antibody to collagen type I (Chemicon, Temecula, Calif.). Cultures were then incubated with the respective fluorescein-conjugated goat anti-rabbit, goat anti-mouse, or rabbit anti-goat secondary antibodies. Nuclei were counterstained with propidium iodide (Sigma, Sigma, St. Louis, Mo.). All of the cultures were then examined with a Nikon Eclipse E1000 microscope attached to a cooled CCD camera (QImaging, Retiga EX) and analyzed by the computer-generated morphometric analysis system (Image-Pro Plus software, Media Cybernetics, Silver Springs, Md.) as previously described.

[3] = test system: fibroblasts derived from dermal stretch marks; assay: Collagen and elastic fiber deposition in stretch-mark fibroblast cultures; format: cell-based, human; details: 200 μM, 24 hour-old cultures
Procedure: Cell Cultures-Fibroblasts initially grew out from the explants of these full thickness skin biopsies and were maintained. The primary cultures of fat-derived fibroblasts obtained from Thermogenesis (Rancho Cordova, Calif.) were also tested. In all described experiments, 2-4 passages of both kinds of fibroblasts were used. In experiments aimed at assessing ECM production, cells were initially plated at a concentration of 100,000 cells/dish. […] Immuno-staining-All cultures maintained in the presence and absence of indicated reagents were either fixed in cold 100% methanol at -20° C. (for detection of elastin) or in 4% paraformaldehyde at room temperature (for detection of collagen I). The multiple parallel cultures were then incubated with 10 μg/ml of polyclonal antibody to tropoelastin (Elastin Products, Owensville, Mich.), or polyclonal antibody to collagen type I (Chemicon, Temecula, Calif.). Cultures were then incubated with the respective fluorescein-conjugated goat anti-rabbit, goat anti-mouse, or rabbit anti-goat secondary antibodies. Nuclei were counterstained with propidium iodide (Sigma, Sigma, St. Louis, Mo.). All of the cultures were then examined with a Nikon Eclipse […] microscope attached to a cooled CCD camera (QImaging, Retiga EX) and analyzed by the computer-generated morphometric analysis system (Image-Pro Plus software, Media Cybernetics, Silver Springs, Md.) as previously described. Quantitative Assays of Insoluble Elastin-Fibroblasts were grown to confluency in 35-mm culture dishes (100,000 cells/dish). Next, 2 μCi of [3H]-valine/ml (Amersham Biosciences Ltd. Oakville, Canada), were added to each dish along with or without the indicated treatments. At the end of each experiment, the levels of metabolically labeled NaOH-insoluble elastin present in individual cultures were assayed and normalized per their DNA content.

[4] = test system: normal dermal fibroblasts; assay: Elastic fiber deposition (immuno-staining morphometry, [3H]-valine insoluble elastin) in monolayer cultures; format: cell-based, human; details: for elastogenic effects of 100 μM SA after pre-treatment with the inhibitor (mRNA, tropoelastin, insoluble elastin, elastic fibers): inhibitor pre-incubation then 100 μM SA, probenecid 400 μM
Procedure: as §1, with “cells/dish.” for “cells/dish. Confluent cultures were then maintained either in serum-free medium (DMEM) or in medium supplemented with 5% FBS in the presence of different reagents that were added 1 hour before treatments with SA.”
as §2
Quantitative Assays of Insoluble Elastin—Fibroblasts were grown to confluency in 35-mm culture dishes (100,000 cells/dish). Next, 2 μCi of [3H]-valine/ml (Amersham Biosciences Ltd. Oakville, Canada), were added to each dish along with or without the indicated treatments. At the end of each experiment, the levels of metabolically labeled NaOH-insoluble elastin present in individual cultures were assayed and normalized per their DNA content.

explants of dermal scars = assay: Organ culture of skin explants (histochemistry, insoluble elastin); format: cell-based, human; details: 1 mM DMOG alone
Procedure: Organ culture of skin explants—Fragments of normal skin, stretch-marked skin and dermal scars collected during plastic surgery procedures were cut into multiple 4 mm2 pieces and maintained for 7 days in DMEM medium containing 5% FBS, […] The parallel quadruplicate explants from each experimental group were additionally maintained in the presence 2 μCi of [3H]-valine/ml and then subjected to the assay of insoluble elastin. The parallel explants from each experimental groups were also evaluated after pentachrome Movat's staining which allows for clear marking of elastic fibers. In each experimental group, 50 sections derived from quadruplicate explants were analyzed.

IGF-1 receptor = target: T1, IGF-1 receptor (Homo sapiens, UniProt P08069); assay: IGF-1R phosphorylation (immuno-precipitation, anti-phospho-tyrosine Western blot); format: cell-based; details: pretreated and maintained with inhibitor, 100 μM SA
T1 construct: immuno-precipitated with antibody to β subunit of IGF-1R and detected by Western blotting with anti-phospho-tyrosine antibody; endogenous in cells; host or cells: cultured dermal fibroblasts
Procedure: At the end of each experiment cells were submerged in the lysis buffer containing a broad-range phosphatase inhibitor. The polyclonal antibodies recognizing either the β subunits of the IGF-IR or the β subunit of the insulin receptor were immobilized on separate sets of the IgG-bearing magnetic beads (Invitrogen Canada Inc, Burlington, ON) and then incubated for 1 hour with the aliquots of the cell lysates containing 400 μg of protein as described in the manufacturer protocol. The beads bearing the resulting immuno-precipitation products were re-suspended in sample buffer and the released proteins were resolved with SDS-PAGE and subjected to Western blotting with a monoclonal anti-p-Tyr (PY99) antibody from Santa Cruz Biotechnology Inc. (Santa Cruz, Calif.) and then with HRP-conjugated goat anti-mouse secondary antibody.

[5] = DMOG added along with 100 μM SA

T1 sequence (P08069 741-1367 limits assumed): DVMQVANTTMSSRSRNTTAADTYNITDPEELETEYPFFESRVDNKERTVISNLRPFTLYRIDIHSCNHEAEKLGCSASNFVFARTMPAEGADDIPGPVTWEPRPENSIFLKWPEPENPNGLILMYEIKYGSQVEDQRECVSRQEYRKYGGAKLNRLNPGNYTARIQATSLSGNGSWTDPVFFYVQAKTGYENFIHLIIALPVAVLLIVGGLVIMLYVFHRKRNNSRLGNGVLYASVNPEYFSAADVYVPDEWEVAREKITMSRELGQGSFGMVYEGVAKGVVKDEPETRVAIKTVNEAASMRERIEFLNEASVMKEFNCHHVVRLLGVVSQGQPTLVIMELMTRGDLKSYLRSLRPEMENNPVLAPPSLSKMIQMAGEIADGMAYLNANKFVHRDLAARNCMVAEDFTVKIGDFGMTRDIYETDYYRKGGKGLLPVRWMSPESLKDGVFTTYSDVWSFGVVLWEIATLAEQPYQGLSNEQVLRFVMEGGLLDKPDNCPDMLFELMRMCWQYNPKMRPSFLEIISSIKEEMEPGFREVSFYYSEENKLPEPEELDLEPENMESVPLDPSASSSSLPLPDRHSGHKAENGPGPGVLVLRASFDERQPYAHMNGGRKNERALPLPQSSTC
T1 sequence (P08069 31-736 partner limits assumed): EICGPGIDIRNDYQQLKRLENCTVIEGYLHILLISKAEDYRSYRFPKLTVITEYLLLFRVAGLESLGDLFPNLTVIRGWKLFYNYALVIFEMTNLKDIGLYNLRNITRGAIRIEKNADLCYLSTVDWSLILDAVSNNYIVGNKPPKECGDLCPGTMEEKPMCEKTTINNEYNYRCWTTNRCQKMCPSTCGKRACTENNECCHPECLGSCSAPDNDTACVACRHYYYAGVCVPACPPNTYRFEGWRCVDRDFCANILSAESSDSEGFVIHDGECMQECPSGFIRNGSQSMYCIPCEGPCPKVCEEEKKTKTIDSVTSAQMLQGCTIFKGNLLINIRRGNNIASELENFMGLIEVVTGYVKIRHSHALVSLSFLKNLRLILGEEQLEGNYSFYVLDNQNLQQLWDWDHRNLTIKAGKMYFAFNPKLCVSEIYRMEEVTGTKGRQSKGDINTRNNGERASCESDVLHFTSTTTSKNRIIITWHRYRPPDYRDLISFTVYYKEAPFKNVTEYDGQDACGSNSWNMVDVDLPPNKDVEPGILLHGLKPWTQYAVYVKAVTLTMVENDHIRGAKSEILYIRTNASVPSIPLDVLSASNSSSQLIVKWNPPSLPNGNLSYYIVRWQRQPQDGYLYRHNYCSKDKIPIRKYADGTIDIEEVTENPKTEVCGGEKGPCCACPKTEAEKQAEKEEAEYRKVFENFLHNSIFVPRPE

**Q.** How did the “levels of intracellular ROS” value ([1]; 100 μM, 2 hours) turn out when `O=C1O[C@H]([C@@H](O)CO)C(O)=C1O` [AA, L-ascorbic acid] was run?
**A.** The value was “did not display any decrease in ROS contents”.

**Q.** What about the “deposition of immuno-detected collagen fibers” value ([2]; 100 μM, 24-hour-old cultures, 5% FBS) of the same compound?
**A.** Its value is “stimulated collagen deposition”.

**Q.** What about the “production of elastic fibers / elastogenesis” value [3] of the same compound?
**A.** The value was “selective inhibition of new elastogenesis”.

**Q.** For `COc1ccc(CNc2nc(N(CCO)CCO)nc3c2ncn3C(C)C)cc1` [CVT313, reference compound], which “elastogenic effects of 100 μM SA after pre-treatment with the inhibitor (mRNA, tropoelastin, insoluble elastin, elastic fibers)” value ([4]; 5% FBS) is on record?
**A.** The value was “eliminated elastogenic effects of 100 μM SA”.

**Q.** With `COC(=O)CNC(=O)C(=O)OC` [DMOG, reference compound] as the compound, how does the “elastic fibers in ECM” value (explants of dermal scars) read?
**A.** Its value is “did not revealed any elastic fibers”.

**Q.** And the “deposition of collagen fibers” value [2, 5]?
**A.** The value was “inhibits the deposition of collagen fibers”.

**Q.** What about the “SA-enhanced production of elastic fibers” value [4, 5] of the same compound?
**A.** Its value is “did not interfere with the enhanced production of elastic fibers; also recorded: does not diminish the elastogenic effect of SA”.

**Q.** Which results are given for `CC(C)(C)n1nc(-c2ccc(Cl)cc2)c2c(N)ncnc21` [PP2, reference compound]?
**A.** elastogenic effects of 100 μM SA after pre-treatment with the inhibitor (mRNA, tropoelastin, insoluble elastin, elastic fibers) ([4]; 5% FBS): did not trigger elastogenic effects; also recorded: abolish all elastogenic effects; SA-induced enhancement of IGF-1R phosphorylation in inhibitor-pretreated cultures (IGF-1 receptor): eliminated

**Q.** How did the “SA-induced enhancement of IGF-1R phosphorylation in inhibitor-pretreated cultures” value (IGF-1 receptor) turn out when `COc1cc([C@@H]2c3cc4c(cc3[C@H](O)[C@H]3COC(=O)[C@@H]23)OCO4)cc(OC)c1OC` [PPP, reference compound] was run?
**A.** The value was “eliminated”.

**Q.** Which “SA-induced decrease of ROS after probenecid pre-incubation” value ([1]; probenecid pre-incubation, then 100 μM SA for 2 hours) does the source give for `CCCN(CCC)S(=O)(=O)c1ccc(C(=O)O)cc1` [probenecid, Probenecid, reference compound] here?
**A.** The value was “could not be observed”.

**Q.** What about the “basic deposition of elastic fibers” value ([4]; 100-400 μM probenecid alone, 24 hours, versus untreated control) of the same compound?
**A.** Its value is “did not demonstrate any decrease in their basic deposition of elastic fibers”.

**Q.** What about the “elastogenic effects of 100 μM SA after pre-treatment with the inhibitor (mRNA, tropoelastin, insoluble elastin, elastic fibers)” value ([4]; 5% FBS) of the same compound?
**A.** The value was “eliminated the elastogenetic effects of 100 μM SA; also recorded: averts the induction of elastogenic effects”.

**Q.** How did the elastogenic effects ([4]; 50 ng/ml exogenous IGF-1, 24-hour treatment, 5% FBS) turn out when “IGF-1: human IGF-I from Sigma-Aldrich, elastogenic stimulator” was run?
**A.** Its elastogenic effects is “strong elastogenic effects”.

**Q.** How did the elastogenesis ([4]; 1 ng/ml TGF-[…]1) turn out when “TGF-[…]1: elastogenic stimulator (TGF-β1, Greek letter lost)” was run?
**A.** The elastogenesis was “increase in elastogenesis”.
